# Measured values reported in ChEMBL document CHEMBL1154782, “Discovery of Trp-His and His-Arg analogues as new structural classes of short antimicrobial peptides” (J Med Chem, 2009).
# Where a SMILES comes first, the peptide text is derived from it. The star is where a group is joined. Boc = CC(C)(C)OC(=O)*; NHBn = c1ccc(CN*)cc1
# Experiments:
# [1] = test system: Escherichia coli; assay: Antibacterial activity against Escherichia coli ATCC 35218; assay type: functional, organism-based
# [2] = test system: Staphylococcus epidermidis; assay: Antibacterial activity against methicillin-resistant Staphylococcus epidermidis DSM 50160384; assay type: functional, organism-based
# [3] = test system: Klebsiella pneumoniae; assay: Antibacterial activity against Klebsiella pneumoniae ATCC 700603 after 15 to 18 hrs under aerobic condition by modified broth microdilution method; assay type: functional
# [4] = test system: Candida albicans; assay: Antifungal activity against Candida albicans ATCC 10231 after 15 to 18 hrs under aerobic condition by modified broth microdilution method; assay type: functional
# [5] = test system: Escherichia coli; assay: Antibacterial activity against Escherichia coli ATCC 35218 after 15 to 18 hrs under aerobic condition by modified broth microdilution method; assay type: functional
# [6] = test system: L929; assay: Cytotoxicity against mouse L929 cells up to 200 ug/mL after 5 days by MTT assay; assay type: cell-based; details: l929, 120 h
# [7] = test system: Staphylococcus aureus; assay: Antibacterial activity against methicillin-resistant Staphylococcus aureus DSM 50128509 after 15 to 18 hrs under aerobic condition by modified broth microdilution method; assay type: functional
# [8] = test system: Staphylococcus aureus; assay: Antibacterial activity against methicillin-resistant Staphylococcus aureus DSM 50128509; assay type: functional, organism-based
# [9] = test system: Staphylococcus epidermidis; assay: Antibacterial activity against methicillin-resistant Staphylococcus epidermidis DSM 50160384 after 15 to 18 hrs under aerobic condition by modified broth microdilution method; assay type: functional
# [10] = test system: Pseudomonas aeruginosa; assay: Antibacterial activity against Pseudomonas aeruginosa ATCC 9027 after 15 to 18 hrs under aerobic condition by modified broth microdilution method; assay type: functional
# [11] = test system: Candida albicans; assay: Antifungal activity against Candida albicans ATCC 10231; assay type: functional, organism-based
smiles,measurement,setting,value
COC(=O)[C@H](Cc1c[nH]c(C(C)(C)C)n1)NC(=O)[C@@H](N)Cc1c[nH]c2ccccc12,IC50,[1],19 µg/mL
same,IC50,[2],6.73 µg/mL
same,MIC,[3],> 200 µg/mL
same,MIC,[4],> 200 µg/mL
same,MIC,[5],200 µg/mL
same,Activity,[6],Non-toxic
same,MIC,[7],10 µg/mL
same,IC50,[8],4.21 µg/mL
same,MIC,[9],100 µg/mL
same,MIC,[10],> 200 µg/mL
COC(=O)[C@H](CCCNC(=N)N)NC(=O)[C@H](Cc1c[nH]c(C(C)C)n1)NC(=O)OC(C)(C)C,IC50,[2],13.1 µg/mL
same,IC50,[11],20.9 µg/mL
same,MIC,[3],> 200 µg/mL
same,MIC,[4],200 µg/mL
same,MIC,[5],> 200 µg/mL
same,Activity,[6],Non-toxic
same,MIC,[7],200 µg/mL
same,IC50,[8],12.4 µg/mL
same,MIC,[9],200 µg/mL
same,MIC,[10],> 200 µg/mL
CC(C)(C)OC(=O)N[C@@H](Cc1c[nH]c2ccccc12)C(=O)N[C@@H](Cc1c[nH]c(C2CCCCC2)n1)C(=O)NCc1ccccc1,IC50,[2],23.8 µg/mL
same,MIC,[3],> 200 µg/mL
same,MIC,[4],> 200 µg/mL
same,MIC,[5],> 200 µg/mL
same,Activity,[6],Non-toxic
same,MIC,[7],200 µg/mL
same,IC50,[8],31.7 µg/mL
same,MIC,[9],200 µg/mL
same,MIC,[10],> 200 µg/mL
CC(C)(C)OC(=O)N[C@@H](Cc1c[nH]c2ccccc12)C(=O)N[C@@H](Cc1c[nH]c(C23CC4CC(CC(C4)C2)C3)n1)C(=O)NCc1ccccc1,IC50,[2],29.1 µg/mL
same,IC50,[11],28.3 µg/mL
same,MIC,[3],200 µg/mL
same,MIC,[4],200 µg/mL
same,MIC,[5],> 200 µg/mL
same,Activity,[6],Non-toxic
same,MIC,[7],100 µg/mL
same,IC50,[8],7.59 µg/mL
same,MIC,[9],200 µg/mL
same,MIC,[10],> 200 µg/mL
COC(=O)[C@H](CCCNC(=N)N)NC(=O)[C@H](Cc1c[nH]c(C(C)(C)C)n1)NC(=O)OC(C)(C)C,IC50,[2],20.1 µg/mL
same,MIC,[3],> 200 µg/mL
same,MIC,[4],> 200 µg/mL
same,MIC,[5],> 200 µg/mL
same,Activity,[6],Non-toxic
same,MIC,[7],100 µg/mL
same,IC50,[8],4.15 µg/mL
same,MIC,[9],200 µg/mL
same,MIC,[10],> 200 µg/mL
CC(C)(C)OC(=O)N[C@@H](Cc1c[nH]cn1)C(=O)N[C@@H](CCCNC(=N)N)C(=O)NCc1ccccc1 (Boc-His-Arg-NHBn),IC50,[2],8.79 µg/mL
same,MIC,[3],> 200 µg/mL
same,MIC,[4],> 200 µg/mL
same,MIC,[5],> 200 µg/mL
same,Activity,[6],Non-toxic
same,MIC,[7],> 200 µg/mL
same,MIC,[9],100 µg/mL
same,MIC,[10],> 200 µg/mL
COC(=O)[C@H](CCCNC(=N)N)NC(=O)[C@H](Cc1c[nH]cn1)NC(=O)OC(C)(C)C (Boc-His-Arg-OMe),IC50,[2],5.07 µg/mL
same,MIC,[3],> 200 µg/mL
same,MIC,[4],> 200 µg/mL
same,MIC,[5],> 200 µg/mL
same,Activity,[6],Non-toxic
same,MIC,[7],> 200 µg/mL
same,MIC,[9],100 µg/mL
same,MIC,[10],> 200 µg/mL
COC(=O)[C@H](Cc1c[nH]cn1)NC(=O)[C@H](Cc1c[nH]c2ccccc12)NC(=O)OC(C)(C)C (Boc-Trp-His-OMe),IC50,[11],31.4 µg/mL
same,MIC,[3],> 200 µg/mL
same,MIC,[4],200 µg/mL
same,MIC,[5],> 200 µg/mL
same,Activity,[6],Non-toxic
same,MIC,[7],200 µg/mL
same,IC50,[8],16.4 µg/mL
same,MIC,[9],> 200 µg/mL
same,MIC,[10],> 200 µg/mL
N=C(N)NCCC[C@H](NC(=O)[C@@H](N)Cc1c[nH]cn1)C(=O)NCc1ccccc1 (H-His-Arg-NHBn),IC50,[2],8.07 µg/mL
same,IC50,[11],16.6 µg/mL
same,MIC,[3],> 200 µg/mL
same,MIC,[4],200 µg/mL
same,MIC,[5],> 200 µg/mL
same,Activity,[6],Non-toxic
same,MIC,[7],100 µg/mL
same,IC50,[8],7.04 µg/mL
same,MIC,[9],100 µg/mL
same,MIC,[10],> 200 µg/mL
COC(=O)[C@H](CCCNC(=N)N)NC(=O)[C@@H](N)Cc1c[nH]cn1 (H-His-Arg-OMe),IC50,[2],2.72 µg/mL
same,MIC,[3],> 200 µg/mL
same,MIC,[4],> 200 µg/mL
same,MIC,[5],> 200 µg/mL
same,Activity,[6],Non-toxic
same,MIC,[7],100 µg/mL
same,IC50,[8],4.88 µg/mL
same,MIC,[9],50 µg/mL
same,MIC,[10],> 200 µg/mL
N[C@@H](Cc1c[nH]c2ccccc12)C(=O)N[C@@H](Cc1c[nH]cn1)C(=O)NCc1ccccc1 (H-Trp-His-NHBn),IC50,[2],29 µg/mL
same,IC50,[11],15.2 µg/mL
same,MIC,[3],> 200 µg/mL
same,MIC,[4],200 µg/mL
same,MIC,[5],> 200 µg/mL
same,Activity,[6],Non-toxic
same,MIC,[7],200 µg/mL
same,IC50,[8],12.3 µg/mL
same,MIC,[9],200 µg/mL
same,MIC,[10],> 200 µg/mL
C[C@@H]1[C@H](O)[C@@H](C)/C=C/C=C/C=C/C=C/C=C/C=C/C=C/[C@H](O[C@@H]2O[C@H](C)[C@@H](O)[C@H](N)[C@@H]2O)C[C@@H]2O[C@](O)(C[C@@H](O)C[C@@H](O)[C@H](O)CC[C@@H](O)C[C@@H](O)CC(=O)O[C@H]1C)C[C@H](O)[C@H]2C(=O)O [AMPHOTERICIN B],IC50,[11],0.34 µg/mL
CN[C@@H]1[C@H](O[C@H]2[C@H](O[C@H]3[C@H](O)[C@@H](O)[C@H](N=C(N)N)[C@@H](O)[C@@H]3N=C(N)N)O[C@@H](C)[C@]2(O)C=O)O[C@@H](CO)[C@H](O)[C@H]1O [STREPTOMYCIN],IC50,[1],0.73 µg/mL
CN[C@H](CC(C)C)C(=O)N[C@H]1C(=O)N[C@@H](CC(N)=O)C(=O)N[C@H]2C(=O)N[C@H]3C(=O)N[C@H](C(=O)N[C@H](C(=O)O)c4cc(O)cc(O)c4-c4cc3ccc4O)[C@H](O)c3ccc(c(Cl)c3)Oc3cc2cc(c3O[C@@H]2O[C@H](CO)[C@@H](O)[C@H](O)[C@H]2O[C@H]2C[C@](C)(N)[C@H](O)[C@H](C)O2)Oc2ccc(cc2Cl)[C@H]1O [VANCOMYCIN],IC50,[2],0.14 µg/mL
same,IC50,[8],0.14 µg/mL
